From US8772250B2, “Compositions and methods for treating ischemia and ischemia-reperfusion injury” (Ischemix, LLC, priority 2010, dated 2014)
Where two headings read alike, the source gives them in different places.

Assay: Pharmacokinetic evaluation in humans
Format: in vivo
Conditions: human; for CL renal: plasma and urine; for AUC(0-inf) / clearance / Cmax / Vd / half-life / AUC(0-t): plasma
Method: Plasma and urine RLip-EA-OH concentrations were measured at BASi, Inc. (West Lafayette, Ind.) using a LC/MS/MS method with positive turbo ion spray, in the multiple reaction-monitoring mode. The quantifiable range for human plasma was 1.00 to 500 ng/mL and QC samples were included at 3.00, 75.0 and 375 ng/mL.
The PK population included subjects who received RLip-EA-OH and had ≧1 post-dose PK measurement. […] Plasma samples from 24 subjects (6 RLip-EA-OH subjects per cohort) were analyzed (Tables 16 and 17).

SMILES: C[C@H](NC(=O)[C@H](CCC(=O)O)NC(=O)CCCC[C@@H]1CCSS1)C(=O)O [RLip-EA-OH, N-(R)-lipoyl-L-glutamyl-L- alanine]
- CL renal (20 mg, noncompartmental, read-out: Renal clearance, Mean (SD) (converted)): 168 mL/min
- CL renal (20 mg, noncompartmental, read-out: Renal clearance, Median (converted)): 186 mL/min
- CL renal (20 mg, noncompartmental, read-out: Renal clearance, Minimum, maximum): 80.8 to 255 mL/min
- CL renal (60 mg, noncompartmental, read-out: Renal clearance, Mean (SD) (converted)): 181 mL/min
- CL renal (60 mg, noncompartmental, read-out: Renal clearance, Median (converted)): 188 mL/min
- CL renal (60 mg, noncompartmental, read-out: Renal clearance, Minimum, maximum): 135 to 220 mL/min
- CL renal (150 mg, noncompartmental, read-out: Renal clearance, Mean (SD) (converted)): 124 mL/min
- CL renal (150 mg, noncompartmental, read-out: Renal clearance, Median (converted)): 98 mL/min
- CL renal (150 mg, noncompartmental, read-out: Renal clearance, Minimum, maximum): 58.5 to 243 mL/min
- CL renal (300 mg, noncompartmental, read-out: Renal clearance, Mean (SD) (converted)): 141 mL/min
- CL renal (300 mg, noncompartmental, read-out: Renal clearance, Median (converted)): 140 mL/min
- CL renal (300 mg, noncompartmental, read-out: Renal clearance, Minimum, maximum): 85.2 to 200 mL/min
- AUC(0-inf) (20 mg, compartmental, read-out: AUCinf, Mean (SD)): 621 ng·h/mL
- AUC(0-inf) (20 mg, compartmental, read-out: AUCinf, Median): 614 ng·h/mL
- AUC(0-inf) (20 mg, compartmental, read-out: AUCinf, Minimum, maximum): 474 to 787 ng·h/mL
- clearance (20 mg, compartmental, read-out: CL, Mean (SD) (converted)): 557 mL/min
- clearance (20 mg, compartmental, read-out: CL, Median (converted)): 545 mL/min
- clearance (20 mg, compartmental, read-out: CL, Minimum, maximum): 423 to 703 mL/min
- Cmax (20 mg, compartmental, read-out: Estimated Cmax, Mean (SD)): 2360 ng/mL
- Cmax (20 mg, compartmental, read-out: Estimated Cmax, Median): 2480 ng/mL
- Cmax (20 mg, compartmental, read-out: Estimated Cmax, Minimum, maximum): 1360 to 3340 ng/mL
- Vd (20 mg, compartmental, read-out: Vss, Mean (SD)): 16 L
- Vd (20 mg, compartmental, read-out: Vss, Median): 16 L
- Vd (20 mg, compartmental, read-out: Vss, Minimum, maximum): 11 to 20 L
- half-life (20 mg, compartmental, read-out: t1/2, Mean (SD) (converted)): 1 h
- half-life (20 mg, compartmental, read-out: t1/2, Median (converted)): 0.8 h
- half-life (20 mg, compartmental, read-out: t1/2, Minimum, maximum): 0.6 to 1.6 h
- AUC(0-t) (20 mg, noncompartmental, read-out: AUC0-t, Mean (SD)): 581 ng·h/mL
- AUC(0-t) (20 mg, noncompartmental, read-out: AUC0-t, Median): 556 ng·h/mL
- AUC(0-t) (20 mg, noncompartmental, read-out: AUC0-t, Minimum, maximum): 466 to 717 ng·h/mL
- AUC(0-inf) (20 mg, noncompartmental, read-out: AUCinf, Mean (SD)): 583 ng·h/mL
- AUC(0-inf) (20 mg, noncompartmental, read-out: AUCinf, Median): 558 ng·h/mL
- AUC(0-inf) (20 mg, noncompartmental, read-out: AUCinf, Minimum, maximum): 467 to 718 ng·h/mL
- clearance (20 mg, noncompartmental, read-out: CL, Mean (SD) (converted)): 588 mL/min
- clearance (20 mg, noncompartmental, read-out: CL, Median (converted)): 598 mL/min
- clearance (20 mg, noncompartmental, read-out: CL, Minimum, maximum): 465 to 713 mL/min
- Cmax (20 mg, noncompartmental, read-out: Cmax, Mean (SD)): 1830 ng/mL
- Cmax (20 mg, noncompartmental, read-out: Cmax, Median): 1840 ng/mL
- Cmax (20 mg, noncompartmental, read-out: Cmax, Minimum, maximum): 1220 to 2420 ng/mL
- Vd (20 mg, noncompartmental, read-out: Vss, Mean (SD)): 18.5 L
- Vd (20 mg, noncompartmental, read-out: Vss, Median): 18.7 L
- Vd (20 mg, noncompartmental, read-out: Vss, Minimum, maximum): 14.4 to 22.4 L
- half-life (20 mg, noncompartmental, read-out: t1/2, Mean (SD) (converted)): 0.86 h
- half-life (20 mg, noncompartmental, read-out: t1/2, Median (converted)): 0.76 h
- half-life (20 mg, noncompartmental, read-out: t1/2, Minimum, maximum): 0.61 to 1.41 h
- clearance (20 mg, read-out: CL (converted)): 588 mL/min
- AUC(0-inf) (60 mg, compartmental, read-out: AUCinf, Mean (SD)): 2260 ng·h/mL
- AUC(0-inf) (60 mg, compartmental, read-out: AUCinf, Median): 1910 ng·h/mL
- AUC(0-inf) (60 mg, compartmental, read-out: AUCinf, Minimum, maximum): 1770 to 3160 ng·h/mL
- clearance (60 mg, compartmental, read-out: CL, Mean (SD) (converted)): 467 mL/min
- clearance (60 mg, compartmental, read-out: CL, Median (converted)): 523 mL/min
- clearance (60 mg, compartmental, read-out: CL, Minimum, maximum): 317 to 565 mL/min
- Cmax (60 mg, compartmental, read-out: Estimated Cmax, Mean (SD)): 6870 ng/mL
- Cmax (60 mg, compartmental, read-out: Estimated Cmax, Median): 6290 ng/mL
- Cmax (60 mg, compartmental, read-out: Estimated Cmax, Minimum, maximum): 5520 to 9050 ng/mL
- Vd (60 mg, compartmental, read-out: Vss, Mean (SD)): 14 L
- Vd (60 mg, compartmental, read-out: Vss, Median): 15 L
- Vd (60 mg, compartmental, read-out: Vss, Minimum, maximum): 10 to 17 L
- half-life (60 mg, compartmental, read-out: t1/2, Mean (SD) (converted)): 1.5 h
- half-life (60 mg, compartmental, read-out: t1/2, Median (converted)): 1.4 h
- half-life (60 mg, compartmental, read-out: t1/2, Minimum, maximum): 1.1 to 2.6 h
- AUC(0-t) (60 mg, noncompartmental, read-out: AUC0-t, Mean (SD)): 2250 ng·h/mL
- AUC(0-t) (60 mg, noncompartmental, read-out: AUC0-t, Median): 1980 ng·h/mL
- AUC(0-t) (60 mg, noncompartmental, read-out: AUC0-t, Minimum, maximum): 1720 to 3110 ng·h/mL
- AUC(0-inf) (60 mg, noncompartmental, read-out: AUCinf, Mean (SD)): 2260 ng·h/mL
- AUC(0-inf) (60 mg, noncompartmental, read-out: AUCinf, Median): 1980 ng·h/mL
- AUC(0-inf) (60 mg, noncompartmental, read-out: AUCinf, Minimum, maximum): 1720 to 3110 ng·h/mL
- clearance (60 mg, noncompartmental, read-out: CL, Mean (SD) (converted)): 467 mL/min
- clearance (60 mg, noncompartmental, read-out: CL, Median (converted)): 505 mL/min
- clearance (60 mg, noncompartmental, read-out: CL, Minimum, maximum): 322 to 582 mL/min
- Cmax (60 mg, noncompartmental, read-out: Cmax, Mean (SD)): 6560 ng/mL
- Cmax (60 mg, noncompartmental, read-out: Cmax, Median): 6840 ng/mL
- Cmax (60 mg, noncompartmental, read-out: Cmax, Minimum, maximum): 5190 to 7990 ng/mL
- Vd (60 mg, noncompartmental, read-out: Vss, Mean (SD)): 14.9 L
- Vd (60 mg, noncompartmental, read-out: Vss, Median): 14.8 L
- Vd (60 mg, noncompartmental, read-out: Vss, Minimum, maximum): 11.3 to 18.6 L
- half-life (60 mg, noncompartmental, read-out: t1/2, Mean (SD) (converted)): 1.21 h
- half-life (60 mg, noncompartmental, read-out: t1/2, Median (converted)): 1.26 h
- half-life (60 mg, noncompartmental, read-out: t1/2, Minimum, maximum): 0.84 to 1.5 h
- AUC(0-inf) (150 mg, compartmental, read-out: AUCinf, Mean (SD)): 7030 ng·h/mL
- AUC(0-inf) (150 mg, compartmental, read-out: AUCinf, Median): 6920 ng·h/mL
- AUC(0-inf) (150 mg, compartmental, read-out: AUCinf, Minimum, maximum): 4890 to 9610 ng·h/mL
- clearance (150 mg, compartmental, read-out: CL, Mean (SD) (converted)): 370 mL/min
